The values below come from patent US9283166B2, “Modulation of melanogenesis by modification of tyrosinase by palmitoylation” (ELC Management LLC, priority 2012, dated 2016).

pIC50: −log10 of the molar value.

Experiment [1] relates to tyrosinase. In words: Degradation of tyrosinase in cycloheximide-treated NHEM (WB). Conditions: 4 hours. The experiment is classed as cell-based, human. The procedure: NHEM were treated with 1 μg/ml cycloheximide, protein synthesis inhibitor, and with (▪) or without (⋄) 10 μM 2-BP for 4 hours. Tyrosinase levels were analyzed by WB using the mouse monoclonal anti-tyrosinase IgG antibody T311 (1:120 dilution). The band intensities of tyrosinase were normalized by the band intensities of Glyceraldehyde 3-phosphate dehydrogenase (GAPDH) as internal control for each condition. The results shown are the average of three determinations±SE.*p<0.05 vs. DMSO (FIGS. 5A and 5B).

Experiment [2] deals with tyrosinase. In words: Total tyrosinase protein in NHEM by Western-blot. The experiment is classed as cell-based, human. As to conditions: 24 hours, various concentrations, vs. DMSO, normalized by tubulin. On the procedure:
(§1) Normal human epidermal melanocytes (NHEM) were incubated with 2-bromopalmitate (2-BP) for 24 hours, and total tyrosinase was determined by Western-blot (WB) using the mouse monoclonal anti-tyrosinase IgG antibody T311 (1:120 dilution). Total tyrosinase protein level was normalized by tubulin. Palmitoylated tyrosinase was evaluated by acyl-RAC and WB. The results shown in FIGS. 2A and 2B, are the average of three determinations SE. *p<0.05 vs. DMSO.

Experiment [3] deals with tyrosinase. In words: Palmitoylated tyrosinase in NHEM by acyl-RAC and WB. The experiment is classed as cell-based, human. As to conditions: 24 hours, vs. DMSO. The procedure:
as §1

In a further experiment the test system is NHEM. In words: Melanin content in NHEM. Format: cell-based, human. Conditions: 48 hours, various concentrations, vs. DMSO. The procedure: (§2) NHEM were treated with indicated concentrations of 2-BP for 48 hours. Melanin content (closed bar) and cell number (open bar) were measured. Values are the average of three determinations±SE. *p<0.05 vs. DMSO. Macroscopic views of cell pellet were taken by digital camera (FIG. 3A). Reconstructed human skin models (Asian type) were incubated with 25 μM 2-BP for 17 days. Eumelanin (EM) and pheomelanin (PM) contents were determined and calculated by following formula. EM=PTCA*25, PM=4−AHP*9. Values are the average of three determinations±SE.*p<0.05 vs. DMSO. Macroscopic views of a human skin model after 17 days were taken by digital camera (FIG. 3B).

The test system of experiment [4] is Reconstructed human skin models (Asian type). In words: Melanin content in reconstructed human skin model. Format: cell-based. Conditions: 25 μM, 17 days, vs. DMSO. On the procedure:
as §2

A further experiment relates to Tyrosinase mRNA. In words: Tyrosinase mRNA by real time quantitative PCR in NHEM. Format: cell-based, human. As to conditions: 6 or 24 hours. On the procedure:
(§3) NHEM were cultured with 2-BP for 6 or 24 hours. Tyrosinase mRNA levels were analyzed by real time quantitative PCR. The results shown are the average of three determinations±SE.*p<0.05 vs. DMSO (FIG. 4A). NHEM were incubated with 5 μM 2-BP for 24 hours. Glycosidase digestion treatment by endo H and WB analysis on mature and immature form of tyrosinase were conducted by WB (FIG. 4B).

Experiment [5] concerns tyrosinase. In words: Glycosylation of tyrosinase (endo H digestion and WB) in NHEM. The experiment is classed as cell-based, human. Conditions: 5 μM, 24 hours. On the procedure: as §3
Experiment [6] has as its system tyrosinase. In words: Ubiquitination of tyrosinase in NHEM (IP and WB). Format: cell-based, human. As to conditions: 5 μM, 24 hours. On the procedure: NHEM were treated with 5 μM 2-BP for 24 hours. Equal protein amounts of cell lysate were used for IP by tyrosinase, and the ubiquitinated (UB) level of tyrosinase was analyzed by WB using anti-UB antibody.
The test system of the next experiment is NHEM (Asian). In words: Melanin synthesis in NHEM with PP2 or KA, with or without 2-BP. The experiment is classed as cell-based, human. Conditions: 120 hours. On the procedure:
NHEM (Asian) were incubated for 120 hours in the presence of PP2, with or without 2-BP. […] Mean±S.E. (N=3)*p<0.05, vs. control. Kojic Acid (KA) was used as a positive control.

Experiment [7] deals with T1, Palmitoyl:protein thioesterase (PPT1) (Homo sapiens, UniProt P50897).
T1 sequence (P50897 28-306): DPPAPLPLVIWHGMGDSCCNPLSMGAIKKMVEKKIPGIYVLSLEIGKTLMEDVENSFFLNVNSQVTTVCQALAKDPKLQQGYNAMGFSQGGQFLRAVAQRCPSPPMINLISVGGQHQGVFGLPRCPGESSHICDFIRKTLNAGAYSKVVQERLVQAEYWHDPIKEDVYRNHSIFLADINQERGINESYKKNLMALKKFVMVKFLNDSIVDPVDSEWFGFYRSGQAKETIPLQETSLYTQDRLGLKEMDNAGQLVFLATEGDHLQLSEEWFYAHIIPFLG
Conditions: cited from earlier work; for PPT1 inhibitory activity: result in words.

As to `C[C@@H]1C[C@@H]([C@H](O)CC2CC(=O)NC(=O)C2)C(=O)[C@@H](C)C1` [cycloheximide], the tyrosinase levels entry in the experiment on tyrosinase [1] (1 μg/ml cycloheximide) is “decreased”.
For `CCCCCCCCCCCCCCC(Br)C(=O)O` (stereo not drawn) [2-BP, 2-bromopalmitate], in the experiment with tyrosinase [2], the “total amount of tyrosinase protein per cell” value is “statistically significant increase”. In addition, the “amount of palmitoylated tyrosinase” value in the experiment on tyrosinase [3] is on record as “decreased”. For the same molecule, the “melanin content per cell” value in the experiment with NHEM is reported as “statistically significant increase”. In experiment [4], the “total melanin: eumelanin (EM) and pheomelanin (PM) content of the tissue” value was “statistically significant increase”. Moreover, the “tyrosinase mRNA expression” value with Tyrosinase mRNA is listed as “decrease”. Also, the glycosylation of tyrosinase entry with tyrosinase [5] is “no effect”. For the same molecule, in the experiment with tyrosinase [1] (10 μM with 1 μg/ml cycloheximide), the degradation of tyrosinase entry is “suppresses the degradation of tyrosinase”. For the same molecule, the ubiquitination of tyrosinase result with tyrosinase [6] is given as “no effect”.
For the molecule `O=c1cc(CO)occ1O` [Kojic acid, Kojic Acid], the melanin synthesis result in the experiment with NHEM (Asian) (2-BP-treated cells) and in the experiment with NHEM (Asian) (cells not treated with 2-BP) was “mildly inhibited melanin synthesis” in each case.
Regarding AcGDap(Palm)GGR7, in [7], the PPT1 inhibitory activity result is recorded as “strong PPT1 inhibitors”.
As for GGC(Pal) VKIKK [CS8], the PPT1 inhibitory activity entry in experiment [7] was “comparable inhibitory activity to CS38”.
The term pIC50 denotes the IC50 on a negative log10 scale, so that one unit is a factor of ten. Turning to NBD-αAGDap(Pal)VKIKK [CS38], the “inhibitor potency relative to Dap1” value in experiment [7] (PPT1 inhibition, compared with Dap1) was 3 fold. The pIC50 in experiment [7] (PPT1 inhibition) was 5.70.
